Reference: US10463664B2, “Inhibitors of HSV nucleotidyl transferases and uses therefor” (Saint Louis University, priority 2013, dated 2019)
Values joined by “and” are separate entries in the source; they are usually repeats but may differ in a detail not shown here. Identical values can stand only once.

Key:
HSV-1 [1] = assay: Anti-HSV-1 replication assay in Vero cells, titer by plaque assay; type: cell-based, herpes simplex virus 1; settings: for Anti-HSV-1 Log10 suppression 5 μM / Anti-HSV-1 Log10 suppression 50 μM / EC50: moi 0.1, 24 h; for Anti-HSV-1 Log10 suppression 5 μM / Anti-HSV-1 Log10 suppression 50 μM: relative to DMSO; for Control of HSV-1 replication after high moi infection: moi 5, 5 μM
Summary of the method: (§1)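 Well lysates titered by plaque assay on Vero cells versus DMSO controls; EC50 by non-linear fit from serial dilutions starting at 50 μM.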

HSV-2 [2] = assay: Anti-HSV-2 replication assay in Vero cells, titer by plaque assay; type: cell-based, herpes simplex virus 2; settings: for Anti-HSV-2 Log10 suppression 5 μM / Anti-HSV-2 Log10 suppression 50 μM: relative to DMSO; for Control of HSV-2 replication after high moi infection: moi 5, 5 μM, 24 h
Summary of the method: as §1

HBV RNaseH = target: T1, HBV RNaseH (Hepatitis B virus genotype A2 subtype adw2, UniProt P03159); assay: Biochemical inhibition of HBV RNaseH (oligonucleotide-directed RNA cleavage assay); settings: compounds at 60, 20 or 10 μM
T1 construct: One of the inventors recently produced active recombinant HBV RNase H; hexahistidine; made in house; host or cells: E. coli
T1 sequence (P03159 693-845): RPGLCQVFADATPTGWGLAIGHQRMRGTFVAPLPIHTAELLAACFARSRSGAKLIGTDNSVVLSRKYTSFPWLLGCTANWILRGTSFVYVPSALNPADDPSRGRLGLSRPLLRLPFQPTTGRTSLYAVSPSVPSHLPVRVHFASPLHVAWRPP
Summary of the method: (§2)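 A DNA oligonucleotide was annealed to internally ^32P-labeled RNA, and the heteroduplex was incubated with enzyme alongside compounds at 60, 20 or 10 μM. Cleavage products were resolved by electrophoresis and detected by autoradiography, then quantified against DMSO vehicle reactions.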

human RNaseH1 = target: T2, human RNaseH1 (Homo sapiens, UniProt O60930); assay: Biochemical inhibition of human RNaseH1 (oligonucleotide-directed RNA cleavage assay); settings: for Anti-Human RNaseH1: compounds at 60, 20 or 10 μM
T2 construct: hexahistidine; made in house; host or cells: E. coli
T2 sequence (O60930 1-286): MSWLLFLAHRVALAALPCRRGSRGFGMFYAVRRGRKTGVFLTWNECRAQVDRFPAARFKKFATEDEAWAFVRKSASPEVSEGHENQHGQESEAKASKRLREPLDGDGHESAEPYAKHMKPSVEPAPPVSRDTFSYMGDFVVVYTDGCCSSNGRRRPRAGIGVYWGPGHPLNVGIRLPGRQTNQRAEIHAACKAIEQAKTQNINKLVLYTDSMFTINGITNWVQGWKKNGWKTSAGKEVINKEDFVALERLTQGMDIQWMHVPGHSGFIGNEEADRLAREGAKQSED
Summary of the method: as §2

HSV-1 [3] = assay: HSV-1 replication inhibition in primary human foreskin fibroblasts; type: cell-based, herpes simplex virus 1; settings: HFF cells; for Replication inhibition HSV-1 5 μM / Replication inhibition HSV-1 50 μM: relative to DMSO-treated control
Summary of the method: (§3)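 Confluent primary HFF monolayers infected at MOI 0.1 with compound present (50 μM and 5 μM final), 1 h at 37 °C; inoculum removed, compound re-added and incubated a further 23 h. Whole-well virus yield at 24 h post-infection titrated by plaque assay on Vero cells; DMSO diluent controls included. EC50 from serial dilutions starting at 50 μM, non-linear curve fit.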

HSV-2 [4] = assay: HSV-2 replication inhibition in primary human foreskin fibroblasts; type: cell-based, herpes simplex virus 2; settings: for EC50 / Replication inhibition HSV-2 5 μM / Replication inhibition HSV-2 50 μM: HFF cells; for Replication inhibition HSV-2 5 μM / Replication inhibition HSV-2 50 μM: relative to DMSO-treated control
Summary of the method: as §3

[5] = test system: TK-deficient mutant of HSV-2 strain 333, ΔTK-; assay: Replication inhibition of thymidine kinase-deficient HSV-2 mutant in Vero cells; type: cell-based, herpes simplex virus 2; settings: 50 μM, 24 h
Protocol: Cells and Viruses. Vero cells were maintained in Dulbecco's modified Eagle's medium (DMEM) containing 3% newborn calf serum, 3% bovine growth serum, 2 mM L-glutamine and 100 IU/mL penicillin and 0.1 mg/mL streptomycin (P/S). Primary human foreskin fibroblasts (ATCC #CRL2429™) were cultured in DMEM containing 10% FBS, 2 mM L-glutamine plus P/S, and used at passage 3 to 12. HSV-1 #6 and HSV-2 #1 are de-identified clinical isolates from the Saint Louis University Hospital. Stocks were prepared after a single passage in cell culture and were titered by standard plaque assay (Knipe and Spang, 1982). Wild-type HSV-1 and HSV-2 used in FIG. 6 were laboratory strains 17 and 333, respectively. The HSV-1 TK-deficient mutant, ΔTK contains a 361-bp deletion between the BglII-SmaI restriction enzyme sites in the UL23 open reading frame of strain 17 (Korom, et al., 2013). The TK-deficient mutant of HSV-2 strain 333, ΔTK-, contains a 180-bp KpnI-KpnI deletion in the UL23 open reading frame that abrogates TK activity (McDermott, et al, 1984). ΔTK- was the generous gift of Jim Smiley. Virus stocks were grown and titered on Vero cells (Morrison and Knipe, 1996).
Inhibition of acyclovir-resistant HSV-1 and HSV-2 mutants. […] HSV TK-deficient mutants are therefore insensitive to ACV. […] Vero cells were infected with laboratory strains of HSV-1 or HSV-2 and engineered TK-deficient mutants of the same strains. […] Similar patterns were seen when the compounds were used at 5 μM (FIG. 8B), although inhibition by compound #30 at 5 μM was too low to definitively interpret.

[6] = Human alphaherpesvirus 1, Vero, 24 h

SMILES	Anti-HSV-1 Log10 suppression 5 μM (HSV-1 [1]; 5 μM)	Anti-HSV-1 Log10 suppression 50 μM (HSV-1 [1])	EC50 (HSV-1 [1])	Anti-HSV-2 Log10 suppression 5 μM (HSV-2 [2]; 5 μM, moi 0.1, 24 h)	Anti-HSV-2 Log10 suppression 50 μM (HSV-2 [2]; moi 0.1, 24 h)	EC50 (HSV-2 [2]; moi 0.1, 24 h)	Anti-HBV RNaseH (HBV RNaseH)	Anti-Human RNaseH1 (human RNaseH1)	EC50 (HSV-1 [3])	Replication inhibition HSV-1 5 μM (HSV-1 [3])	Replication inhibition HSV-1 50 μM (HSV-1 [3])	EC50 (HSV-2 [4])	Replication inhibition HSV-2 5 μM (HSV-2 [4]; 5 μM)	Replication inhibition HSV-2 50 μM (HSV-2 [4])	Inhibition of TK-mutant HSV-2 (in words) [5]	Control of HSV-1 replication after high moi infection (HSV-1 [1]; 24 h)	Control of HSV-2 replication after high moi infection (HSV-2 [2])	also measured
CCOc1ccc(-c2c3cc(O)c(=O)cc-3oc3cc(O)c(O)cc23)cc1 [Compound 30]	1.39 log10	4.02 log10	5930 nM and 4200 nM	3.69 log10	4.55 log10	3930 nM	+++ (inhibition at 10 μM)	+++ (inhibition at 10 μM)	320 nM	3.22 log10	5.23 log10	520 nM	2.04 log10	6.68 log10	efficiently inhibited	–	–	Fold more active against HSV-2 than HSV-1 (HSV-2 [2]; 5 μM): > 100 fold; Concentration giving inhibition of purified human RNaseH 1 (human RNaseH1): < 60 µM; Fold less effective inhibition of HSV-2 in HFF cells than in Vero cells (HSV-2 [4]; 5 μM): ~45 fold
C=C(C)C1CCc2c(c(C)cc(O)c(=O)c2O)C1 (centres unmarked) [Compound 56, Manicol]	5.14 log10	5.82 log10	350 nM	5.95 log10	5.79 log10	580 nM	+++ (inhibition at 10 μM)	− (no inhibition at 60 μM)	240 nM	5.72 log10	6.39 log10	550 nM	5.93 log10	6.80 log10	–	–	–	HSV-1 replication inhibition, fold (HSV-1 [1]; 5 μM): 138,000 fold; HSV-2 replication inhibition, fold (HSV-2 [2]; 5 μM): 891,000 fold
Nc1nc2c(ncn2COCCO)c(=O)[nH]1 [ACV, Acyclovir, reference compound]	4.49 log10	5.85 log10	–	3.91 log10	5.25 log10	–	− (no inhibition at 60 μM)	− (no inhibition at 60 μM)	–	5.25 log10	6.69 log10	–	4.01 log10	6.27 log10	little effect	efficiently controlled virus replication	efficiently controlled virus replication	EC50 (HSV-1 [1]; [6]): 210 nM; EC50 (HSV-1 [3]; Human alphaherpesvirus 1): 120 nM; EC50 (HSV-2 [4]; Human alphaherpesvirus 2): 120 nM
CC(C)c1ccc(O)c(=O)c(O)c1 [Compound 46, Beta-thujaplicinol]	–	4.81 log10	1940 nM	–	5.12 log10	1690 nM	+++ (inhibition at 10 μM)	+ (inhibition at 60 μM)	970 nM	5.83 log10	6.39 log10	380 nM	5.17 log10	5.83 log10	efficiently inhibited	efficiently controlled virus replication	efficiently controlled virus replication	–
Cc1cc(C2CCCCC2)n(O)c(=O)c1 [Compound 41, Ciclopirox, reference compound]	–	5.23 log10	–	–	5.25 log10	–	− (no inhibition at 60 μM)	+ (inhibition at 60 μM)	–	5.06 log10	5.57 log10	–	5.21 log10	4.97 log10	efficiently inhibited	–	–	EC50 (HSV-1 [1]; [6]): 270 nM; Inhibition of HSV-1 replication (in words) (HSV-1 [1]; primary screening): strong inhibitor; EC50 (HSV-2 [2]; Human alphaherpesvirus 2, moi 0.1, 24 h): 450 nM; Inhibition of HSV-2 replication (in words) (HSV-2 [2]; primary screening): strong inhibitor; EC50 (HSV-1 [3]; Human alphaherpesvirus 1): 140 nM; Suppression of HSV-2 replication, ciclopirox versus its salt (HSV-2 [4]; HFFs, various concentrations, 24 hours): equivalent extent; EC50 (HSV-2 [4]; Human alphaherpesvirus 2): 1000 nM
CC(C)=CCc1ccc(O)c(=O)cc1C(C)C [Compound 49, Nootkatin]	–	4.72 log10	240 nM	–	5.05 log10	190 nM and 220 nM	− (no inhibition at 60 μM)	− (no inhibition at 60 μM)	740 nM	5.79 log10	6.27 log10	1230 nM	5.47 log10	5.98 log10	–	–	–	–
CC(=O)NC(CCc1ccc(Cl)c(Cl)c1)c1cccc(O)c(=O)c1 (centres unmarked) [Compound 55]	–	5.04 log10	420 nM	–	5.06 log10	1070 nM	+ (inhibition at 60 μM)	+ (inhibition at 60 μM)	2810 nM	4.99 log10	6.17 log10	1670 nM	3.94 log10	6.55 log10	–	efficiently controlled virus replication	efficiently controlled virus replication	–
